Test results published in publication PMC6917776, “Discovery of a chemical probe for PRDM9” (Nature Communications, 2019).
Read-outs that look alike come from different tables or passages of the source.

Experiments:
Test in all cases: Methyltransferase selectivity assay (SPA)
Format in all cases: biochemical
PRMT5/ MEP50 complex = biological target: T1, PRMT5/ MEP50 complex (Homo sapiens, UniProt O14744)
T1 construct: purchased Structural Genomics Consortium (SGC Toronto) in-house methyltransferase panel
T1 sequence (O14744 whole entry): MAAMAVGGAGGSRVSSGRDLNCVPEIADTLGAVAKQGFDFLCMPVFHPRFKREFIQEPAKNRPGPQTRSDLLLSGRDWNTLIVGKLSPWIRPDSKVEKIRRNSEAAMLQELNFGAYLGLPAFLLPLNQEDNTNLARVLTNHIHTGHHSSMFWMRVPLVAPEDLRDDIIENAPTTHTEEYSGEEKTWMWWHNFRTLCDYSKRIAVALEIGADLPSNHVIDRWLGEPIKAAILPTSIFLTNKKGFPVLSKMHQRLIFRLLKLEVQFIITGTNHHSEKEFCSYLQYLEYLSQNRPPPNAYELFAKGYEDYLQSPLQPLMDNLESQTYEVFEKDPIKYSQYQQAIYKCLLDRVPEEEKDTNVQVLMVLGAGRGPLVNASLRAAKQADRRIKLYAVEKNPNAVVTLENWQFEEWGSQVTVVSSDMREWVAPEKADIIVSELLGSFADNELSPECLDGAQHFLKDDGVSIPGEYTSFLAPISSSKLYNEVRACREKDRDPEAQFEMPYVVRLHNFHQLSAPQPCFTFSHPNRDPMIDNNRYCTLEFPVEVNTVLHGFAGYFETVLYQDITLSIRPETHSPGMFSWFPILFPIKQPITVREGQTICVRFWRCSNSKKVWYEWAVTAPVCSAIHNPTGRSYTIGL
T1 sequence (Q9BQA1 whole entry partner): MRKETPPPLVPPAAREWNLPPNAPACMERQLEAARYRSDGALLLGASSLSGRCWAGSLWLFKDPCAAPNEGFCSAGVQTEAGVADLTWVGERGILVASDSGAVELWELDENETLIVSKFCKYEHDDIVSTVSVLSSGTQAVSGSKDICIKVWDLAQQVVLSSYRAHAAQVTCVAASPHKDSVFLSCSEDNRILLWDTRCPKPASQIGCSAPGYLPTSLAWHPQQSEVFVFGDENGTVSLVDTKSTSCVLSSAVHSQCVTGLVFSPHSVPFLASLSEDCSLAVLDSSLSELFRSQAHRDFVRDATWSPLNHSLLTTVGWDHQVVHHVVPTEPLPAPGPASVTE
Procedure: (§1) Selectivity against methyltransferases were determined as described previously. Details of the assays are described in the supplementary methods.
(§2) Methyltransferase selectivity assay1
(§3) The effect of chemical probes and negative controls on the methyltransferase activities of protein, DNA and RNA methyltransferases was tested by radiometric assays using 3H-SAM. For proteins such as MLL1 trimeric, MLL3 pentameric, EZH1 (PRC2) pentameric, and EZH2 (PRC2) trimeric complexes, as well as G9a, GLP, SUV39H1, SUV39H2, SUV420H1, SUV420H2, SETD2, SETD8, SETDB1, SETD7, PRMT1, PRMT3, PRMT4, PRMT5/ MEP50 complex, PRMT6, PRMT7, PRMT8, PRMT9, PRDM9, SMYD2, SMYD3, DNMT1, and BCDIN3D the incorporation of a tritium-labeled methyl group into biotinylated substrate was monitored using scintillation proximity assay (SPA). Briefly, a 10 µL reaction containing 3H-SAM and substrate at concentrations close to the apparent Km values for each enzyme (balanced conditions) was prepared. The reactions were quenched with 10 µL of 7.5 M guanidine hydrochloride; 180 µL of 20 mM Tris buffer (pH 8.0) were added, and the mixture was transferred to a 96-well FlashPlate and incubated for 1 h. The counts per minute (CPM) was measured on a TopCount plate reader. The CPM in the absence of compound or enzyme was defined as 100% activity and background (0%), respectively, for each dataset. […]

PRMT6 = biological target: T2, PRMT6 (Homo sapiens, UniProt Q96LA8)
T2 construct: purchased Structural Genomics Consortium (SGC Toronto) in-house methyltransferase panel
T2 sequence (Q96LA8 whole entry): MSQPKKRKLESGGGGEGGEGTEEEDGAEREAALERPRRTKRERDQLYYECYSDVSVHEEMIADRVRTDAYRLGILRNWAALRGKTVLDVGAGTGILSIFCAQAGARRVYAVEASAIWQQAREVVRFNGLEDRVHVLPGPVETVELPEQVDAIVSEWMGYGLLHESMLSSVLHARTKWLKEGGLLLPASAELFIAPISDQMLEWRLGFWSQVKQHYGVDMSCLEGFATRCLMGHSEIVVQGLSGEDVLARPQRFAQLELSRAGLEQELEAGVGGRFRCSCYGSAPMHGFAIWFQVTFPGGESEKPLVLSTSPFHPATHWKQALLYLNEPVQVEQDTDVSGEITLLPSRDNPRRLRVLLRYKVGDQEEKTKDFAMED
Procedure: as §1, §2, §3

SETD7 = biological target: T3, SETD7 (Homo sapiens, UniProt Q8WTS6)
T3 construct: purchased Structural Genomics Consortium (SGC Toronto) in-house methyltransferase panel
T3 sequence (Q8WTS6 1-366): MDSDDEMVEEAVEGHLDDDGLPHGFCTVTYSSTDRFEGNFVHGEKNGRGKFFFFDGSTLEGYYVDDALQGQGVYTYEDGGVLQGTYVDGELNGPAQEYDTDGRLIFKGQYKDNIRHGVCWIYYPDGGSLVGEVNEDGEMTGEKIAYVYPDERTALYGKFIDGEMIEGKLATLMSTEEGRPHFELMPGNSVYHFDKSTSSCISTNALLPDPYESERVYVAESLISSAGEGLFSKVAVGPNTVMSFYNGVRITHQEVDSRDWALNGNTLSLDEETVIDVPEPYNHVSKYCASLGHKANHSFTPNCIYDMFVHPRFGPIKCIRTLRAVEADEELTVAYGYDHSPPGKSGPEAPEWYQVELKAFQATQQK
Procedure: as §1, §2, §3

SMYD2 = biological target: T4, SMYD2 (Homo sapiens, UniProt Q9NRG4)
T4 construct: purchased Structural Genomics Consortium (SGC Toronto) in-house methyltransferase panel
T4 sequence (Q9NRG4 whole entry): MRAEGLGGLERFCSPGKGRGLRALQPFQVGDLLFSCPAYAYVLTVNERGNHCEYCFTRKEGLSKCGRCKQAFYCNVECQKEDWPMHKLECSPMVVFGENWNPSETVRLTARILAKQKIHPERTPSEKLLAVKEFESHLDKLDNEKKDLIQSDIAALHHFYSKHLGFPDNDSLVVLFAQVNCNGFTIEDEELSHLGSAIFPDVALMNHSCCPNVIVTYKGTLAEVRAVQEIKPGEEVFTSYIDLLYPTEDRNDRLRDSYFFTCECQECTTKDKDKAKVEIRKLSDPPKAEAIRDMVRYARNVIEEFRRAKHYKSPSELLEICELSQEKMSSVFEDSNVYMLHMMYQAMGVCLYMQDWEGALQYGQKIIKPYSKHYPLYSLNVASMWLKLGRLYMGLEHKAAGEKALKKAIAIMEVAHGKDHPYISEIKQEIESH
Procedure: as §1, §2, §3

SMYD3 = biological target: T5, SMYD3 (Homo sapiens, UniProt Q9H7B4)
T5 construct: purchased Structural Genomics Consortium (SGC Toronto) in-house methyltransferase panel
T5 sequence (Q9H7B4 1-428): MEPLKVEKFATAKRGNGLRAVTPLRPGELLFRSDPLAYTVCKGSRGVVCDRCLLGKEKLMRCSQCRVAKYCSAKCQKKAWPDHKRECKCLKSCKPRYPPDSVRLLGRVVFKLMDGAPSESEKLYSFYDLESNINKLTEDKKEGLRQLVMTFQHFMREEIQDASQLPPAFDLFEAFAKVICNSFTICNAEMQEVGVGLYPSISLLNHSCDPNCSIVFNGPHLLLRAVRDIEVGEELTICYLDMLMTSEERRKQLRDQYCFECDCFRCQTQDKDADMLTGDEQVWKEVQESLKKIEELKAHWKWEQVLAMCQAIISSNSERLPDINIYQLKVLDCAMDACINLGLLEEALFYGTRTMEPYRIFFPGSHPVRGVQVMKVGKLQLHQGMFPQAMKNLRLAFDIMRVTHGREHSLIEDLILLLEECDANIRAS
Procedure: as §1, §2, §3

SUV39H1 = biological target: T6, SUV39H1 (Homo sapiens, UniProt O43463)
T6 construct: purchased Structural Genomics Consortium (SGC Toronto) in-house methyltransferase panel
T6 sequence (O43463 1-412): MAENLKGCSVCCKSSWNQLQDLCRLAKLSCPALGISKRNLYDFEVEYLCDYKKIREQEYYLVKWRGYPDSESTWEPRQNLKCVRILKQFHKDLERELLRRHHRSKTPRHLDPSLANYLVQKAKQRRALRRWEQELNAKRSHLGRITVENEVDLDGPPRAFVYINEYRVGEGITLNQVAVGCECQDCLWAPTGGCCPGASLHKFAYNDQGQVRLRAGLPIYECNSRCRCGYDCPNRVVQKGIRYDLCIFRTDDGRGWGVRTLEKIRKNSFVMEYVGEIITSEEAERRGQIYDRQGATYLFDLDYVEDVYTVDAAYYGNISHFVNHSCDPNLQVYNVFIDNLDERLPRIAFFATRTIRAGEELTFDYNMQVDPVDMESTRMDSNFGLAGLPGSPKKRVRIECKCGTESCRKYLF
Procedure: as §1, §2, §3

SUV39H2 = biological target: T7, SUV39H2 (Homo sapiens, UniProt Q9H5I1)
T7 construct: purchased Structural Genomics Consortium (SGC Toronto) in-house methyltransferase panel
T7 sequence (Q9H5I1 whole entry): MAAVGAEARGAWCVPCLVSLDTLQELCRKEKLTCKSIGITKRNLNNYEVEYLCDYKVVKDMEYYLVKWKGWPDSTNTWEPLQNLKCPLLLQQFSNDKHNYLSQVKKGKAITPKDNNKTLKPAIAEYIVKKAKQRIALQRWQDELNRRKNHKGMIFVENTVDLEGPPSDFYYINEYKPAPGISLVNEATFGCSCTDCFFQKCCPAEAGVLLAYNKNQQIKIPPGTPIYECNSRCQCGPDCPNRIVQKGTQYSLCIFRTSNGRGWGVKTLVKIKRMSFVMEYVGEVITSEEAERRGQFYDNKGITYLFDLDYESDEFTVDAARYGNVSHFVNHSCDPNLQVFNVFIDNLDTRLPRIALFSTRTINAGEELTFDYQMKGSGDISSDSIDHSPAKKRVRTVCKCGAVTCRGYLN
Procedure: as §1, §2, §3

SUV420H2 = biological target: T8, SUV420H2 (Homo sapiens, UniProt Q86Y97)
T8 construct: purchased Structural Genomics Consortium (SGC Toronto) in-house methyltransferase panel
T8 sequence (Q86Y97 whole entry): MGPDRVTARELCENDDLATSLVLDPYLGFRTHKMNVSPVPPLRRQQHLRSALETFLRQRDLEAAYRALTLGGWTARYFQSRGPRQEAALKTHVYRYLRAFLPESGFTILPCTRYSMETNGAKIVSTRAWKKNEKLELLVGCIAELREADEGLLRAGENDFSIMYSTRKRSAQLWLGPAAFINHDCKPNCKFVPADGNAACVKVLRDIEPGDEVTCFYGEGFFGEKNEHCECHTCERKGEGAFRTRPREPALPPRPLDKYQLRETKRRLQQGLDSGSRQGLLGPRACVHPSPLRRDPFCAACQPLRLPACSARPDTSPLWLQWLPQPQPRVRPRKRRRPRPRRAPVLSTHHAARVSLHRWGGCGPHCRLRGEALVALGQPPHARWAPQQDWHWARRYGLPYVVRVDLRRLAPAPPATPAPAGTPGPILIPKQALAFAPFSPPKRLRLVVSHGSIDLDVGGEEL
Procedure: as §1, §2, §3

[1] = 1µM compound, Exp1, Exp2, read-out: Activity %
[2] = 10µM compound, Exp1, Exp2, read-out: Activity %
[3] = 10µM compound, Exp1, Exp2, 10 µM

## COc1cc(OC)cc(-c2noc(N3CCN(C)C4(CCN(c5ccnc(C)c5)CC4)C3)n2)c1 [MRK-740]
PRMT5/ MEP50 complex; [1]
  activity at 1 µM: 90%
PRMT5/ MEP50 complex; [2]
  activity at 10 µM: 94%
PRMT6; 1µM compound, Exp1, Exp2, 1 µM
  Activity %: 94%
PRMT6; [1]
  activity at 1 µM: 98%
PRMT6; [3]
  Activity %: 93%
PRMT6; [2]
  activity at 10 µM: 98%
SETD7; 1µM compound, Exp1, Exp2, 1 µM
  Activity %: 92%
SETD7; [1]
  activity at 1 µM: 93%
SETD7; [3]
  Activity %: 87%
SETD7; [2]
  activity at 10 µM: 90%
SMYD2; 1µM compound, Exp1, Exp2, 1 µM
  Activity %: 89%
SMYD2; [1]
  activity at 1 µM: 86%
SMYD2; [3]
  Activity %: 92%
SMYD2; [2]
  activity at 10 µM: 91%
SMYD3; 1µM compound, Exp1, Exp2, 1 µM
  Activity %: 91%
SMYD3; [1]
  activity at 1 µM: 95%
SMYD3; [3]
  Activity %: 101%
SMYD3; [2]
  activity at 10 µM: 96%
SUV39H1; 1µM compound, Exp1, Exp2, 1 µM
  Activity %: 85%
SUV39H1; [1]
  activity at 1 µM: 84%
SUV39H1; [3]
  Activity %: 80%
SUV39H1; [2]
  activity at 10 µM: 84%
SUV39H2; 1µM compound, Exp1, Exp2, 1 µM
  Activity %: 89%
SUV39H2; [1]
  activity at 1 µM: 92%
SUV39H2; [3]
  Activity %: 90%
SUV39H2; [2]
  activity at 10 µM: 92%
SUV420H2; 1µM compound, Exp1, Exp2, 1 µM
  Activity %: 95%
SUV420H2; [1]
  activity at 1 µM: 97%
SUV420H2; [3]
  Activity %: 103%
SUV420H2; [2]
  activity at 10 µM: 100%

## COc1cc(OC)cc(-c2noc(N3CCN(C)C4(CCN(c5ccccc5)CC4)C3)n2)c1 [MRK-740 -NC]
PRMT5/ MEP50 complex; 1µM compound, Exp1, Exp2
  activity at 1 µM: 108%
PRMT5/ MEP50 complex; 1µM compound, Exp1, Exp2, 1 µM
  Activity %: 99%
PRMT5/ MEP50 complex; 10µM compound, Exp1, Exp2
  activity at 10 µM: 95%
PRMT5/ MEP50 complex; [3]
  Activity %: 102%
PRMT6; 1µM compound, Exp1, Exp2
  activity at 1 µM: 98%
PRMT6; 1µM compound, Exp1, Exp2, 1 µM
  Activity %: 97%
PRMT6; 10µM compound, Exp1, Exp2
  activity at 10 µM: 96%
PRMT6; [3]
  Activity %: 95%
SETD7; 1µM compound, Exp1, Exp2
  activity at 1 µM: 96%
SETD7; 1µM compound, Exp1, Exp2, 1 µM
  Activity %: 95%
SETD7; 10µM compound, Exp1, Exp2
  activity at 10 µM: 94%
SETD7; [3]
  Activity %: 88%
SMYD2; 1µM compound, Exp1, Exp2
  activity at 1 µM: 102%
SMYD2; 1µM compound, Exp1, Exp2, 1 µM
  Activity %: 100%
SMYD2; 10µM compound, Exp1, Exp2
  activity at 10 µM: 101%
SMYD2; [3]
  Activity %: 99%
SMYD3; 1µM compound, Exp1, Exp2
  activity at 1 µM: 100%
SMYD3; 1µM compound, Exp1, Exp2, 1 µM
  Activity %: 102%
SMYD3; 10µM compound, Exp1, Exp2
  activity at 10 µM: 96%
SMYD3; [3]
  Activity %: 89%
SUV39H1; 1µM compound, Exp1, Exp2
  activity at 1 µM: 100%
SUV39H1; 1µM compound, Exp1, Exp2, 1 µM
  Activity %: 104%
SUV39H1; 10µM compound, Exp1, Exp2
  activity at 10 µM: 101%
SUV39H2; 1µM compound, Exp1, Exp2
  activity at 1 µM: 93%
SUV39H2; 10µM compound, Exp1, Exp2
  activity at 10 µM: 86%
SUV39H2; [3]
  Activity %: 96%
SUV420H2; 1µM compound, Exp1, Exp2
  activity at 1 µM: 106%
SUV420H2; 10µM compound, Exp1, Exp2
  activity at 10 µM: 98%
SUV420H2; [3]
  Activity %: 103%
